Source: PubChem BioAssay AID2060889 (Molecular Pharmacology Branch, DTP, NCI, 2025)

System: LG0567-F671-PDC complex spheroids viability
Assay: Anticancer human tumor LG0567-F671-PDC patient-derived lung adenocarcinoma cell line growth inhibition [RAS]
Settings: for viability, T/C: stronger effect = lower value
Procedure, shortened: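 Agents were tested in combination matrices in half-log decrements from a top concentration at or near clinical Cmax (10 microM if undetermined). Targets were multi-cell spheroids of tumour lines plus HUVEC and MSC stromal cells.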
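Further: spheroids exposed to compound for seven days before readout.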
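Wherever IC50 is given: luminescence signal used as a proxy for viable cells.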

CCc1c2c(nc3ccc(O)cc13)-c1cc3c(c(=O)n1C2)COC(=O)[C@]3(O)CC + C#Cc1c(F)ccc2cc(O)cc(-c3ncc4c(N5CC6CCC(C5)N6)nc(OCC56CCCN5CC(F)C6)nc4c3F)c12
IC50 (curve of first compound, second compound 0.0316 µM): 16.1 nM
IC50 (curve of first compound, second compound 0.1 µM): 11.7 nM
IC50 (curve of first compound, second compound 0.316 µM): 2.33 nM
IC50 (curve of first compound, second compound 1 µM): < 0.949 nM
IC50 (curve of first compound, second compound 3.16 µM): < 0.949 nM
IC50 (curve of first compound, second compound 10 µM): < 0.949 nM
viability, T/C (second compound 0.0316 µM, first compound 0.000949 µM): 82.4%
viability, T/C (second compound 0.0316 µM, first compound 0.003 µM): 67.4%
viability, T/C (second compound 0.0316 µM, first compound 0.00949 µM): 56.8%
viability, T/C (second compound 0.0316 µM, first compound 0.03 µM): 44.4%
viability, T/C (second compound 0.0316 µM, first compound 0.0949 µM): 23.6%
viability, T/C (second compound 0.0316 µM, first compound 0.3 µM): 6.15%
viability, T/C (second compound 0.1 µM, first compound 0.000949 µM): 73.3%
viability, T/C (second compound 0.1 µM, first compound 0.003 µM): 61%
viability, T/C (second compound 0.1 µM, first compound 0.00949 µM): 54.8%
viability, T/C (second compound 0.1 µM, first compound 0.03 µM): 38.6%
viability, T/C (second compound 0.1 µM, first compound 0.0949 µM): 22.4%
viability, T/C (second compound 0.1 µM, first compound 0.3 µM): 7.9%
viability, T/C (second compound 0.316 µM, first compound 0.000949 µM): 50.4%
viability, T/C (second compound 0.316 µM, first compound 0.003 µM): 53.3%
viability, T/C (second compound 0.316 µM, first compound 0.00949 µM): 41%
viability, T/C (second compound 0.316 µM, first compound 0.03 µM): 29.8%
viability, T/C (second compound 0.316 µM, first compound 0.0949 µM): 20.3%
viability, T/C (second compound 0.316 µM, first compound 0.3 µM): 7.35%
viability, T/C (second compound 1 µM, first compound 0.000949 µM): 30.5%
viability, T/C (second compound 1 µM, first compound 0.003 µM): 29.1%
viability, T/C (second compound 1 µM, first compound 0.00949 µM): 26.7%
viability, T/C (second compound 1 µM, first compound 0.03 µM): 20.9%
viability, T/C (second compound 1 µM, first compound 0.0949 µM): 13.9%
viability, T/C (second compound 1 µM, first compound 0.3 µM): 6.24%
viability, T/C (second compound 3.16 µM, first compound 0.000949 µM): 20%
viability, T/C (second compound 3.16 µM, first compound 0.003 µM): 15.3%
viability, T/C (second compound 3.16 µM, first compound 0.00949 µM): 15.6%
viability, T/C (second compound 3.16 µM, first compound 0.03 µM): 11.2%
viability, T/C (second compound 3.16 µM, first compound 0.0949 µM): 8.88%
viability, T/C (second compound 3.16 µM, first compound 0.3 µM): 4.31%
viability, T/C (second compound 10 µM, first compound 0.000949 µM): 11%
viability, T/C (second compound 10 µM, first compound 0.003 µM): 10%
viability, T/C (second compound 10 µM, first compound 0.00949 µM): 10.1%
viability, T/C (second compound 10 µM, first compound 0.03 µM): 6.59%
viability, T/C (second compound 10 µM, first compound 0.0949 µM): 4.97%
viability, T/C (second compound 10 µM, first compound 0.3 µM): 3.6%

CCN1CCN(Cc2ccc(Nc3ncc(F)c(-c4cc(F)c5nc(C)n(C(C)C)c5c4)n3)nc2)CC1 + CCn1c(-c2cccnc2C(C)OC)c2c3cc(ccc31)N1CCOC(CC(NC(=O)C(C(C)C)N(C)C(=O)C3(F)CCN(C(=O)C#CC(C)(C)N(C)C)CC3)C(=O)N3CCCC(N3)C(=O)OCC(C)(C)C2)C1
IC50 (curve of first compound, second compound 0.000949 µM): < 3.16 nM
IC50 (curve of first compound, second compound 0.003 µM): < 3.16 nM
IC50 (curve of first compound, second compound 0.00949 µM): < 3.16 nM
IC50 (curve of first compound, second compound 0.03 µM): < 3.16 nM
IC50 (curve of first compound, second compound 0.0949 µM): < 3.16 nM
IC50 (curve of first compound, second compound 0.3 µM): < 3.16 nM
viability, T/C (second compound 0.000949 µM, first compound 0.00316 µM): 15%
viability, T/C (second compound 0.000949 µM, first compound 0.01 µM): 15.8%
viability, T/C (second compound 0.000949 µM, first compound 0.0316 µM): 14.2%
viability, T/C (second compound 0.000949 µM, first compound 0.1 µM): 14.7%
viability, T/C (second compound 0.000949 µM, first compound 0.316 µM): 18.1%
viability, T/C (second compound 0.000949 µM, first compound 1 µM): 17.5%
viability, T/C (second compound 0.003 µM, first compound 0.00316 µM): 14.2%
viability, T/C (second compound 0.003 µM, first compound 0.01 µM): 16.5%
viability, T/C (second compound 0.003 µM, first compound 0.0316 µM): 13%
viability, T/C (second compound 0.003 µM, first compound 0.1 µM): 15.9%
viability, T/C (second compound 0.003 µM, first compound 0.316 µM): 18.7%
viability, T/C (second compound 0.003 µM, first compound 1 µM): 19.9%
viability, T/C (second compound 0.00949 µM, first compound 0.00316 µM): 15.2%
viability, T/C (second compound 0.00949 µM, first compound 0.01 µM): 13.4%
viability, T/C (second compound 0.00949 µM, first compound 0.0316 µM): 14.1%
viability, T/C (second compound 0.00949 µM, first compound 0.1 µM): 14.8%
viability, T/C (second compound 0.00949 µM, first compound 0.316 µM): 16.5%
viability, T/C (second compound 0.00949 µM, first compound 1 µM): 17.4%
viability, T/C (second compound 0.03 µM, first compound 0.00316 µM): 13.1%
viability, T/C (second compound 0.03 µM, first compound 0.01 µM): 12.9%
viability, T/C (second compound 0.03 µM, first compound 0.0316 µM): 13.7%
viability, T/C (second compound 0.03 µM, first compound 0.1 µM): 13.9%
viability, T/C (second compound 0.03 µM, first compound 0.316 µM): 16.8%
viability, T/C (second compound 0.03 µM, first compound 1 µM): 16.5%
viability, T/C (second compound 0.0949 µM, first compound 0.00316 µM): 16%
viability, T/C (second compound 0.0949 µM, first compound 0.01 µM): 13.3%
viability, T/C (second compound 0.0949 µM, first compound 0.0316 µM): 11.8%
viability, T/C (second compound 0.0949 µM, first compound 0.1 µM): 12.2%
viability, T/C (second compound 0.0949 µM, first compound 0.316 µM): 15%
viability, T/C (second compound 0.0949 µM, first compound 1 µM): 15.1%
viability, T/C (second compound 0.3 µM, first compound 0.00316 µM): 10.5%
viability, T/C (second compound 0.3 µM, first compound 0.01 µM): 9.89%
viability, T/C (second compound 0.3 µM, first compound 0.0316 µM): 10.4%
viability, T/C (second compound 0.3 µM, first compound 0.1 µM): 10.7%
viability, T/C (second compound 0.3 µM, first compound 0.316 µM): 13.8%
viability, T/C (second compound 0.3 µM, first compound 1 µM): 11.4%

CCN1CCN(Cc2ccc(Nc3ncc(F)c(-c4cc(F)c5nc(C)n(C(C)C)c5c4)n3)nc2)CC1
viability, T/C (compound 0.00316 µM): 94.3% [middle of 4 runs]
viability, T/C (compound 0.01 µM): 85% [middle of 4 runs]
viability, T/C (compound 0.0316 µM): 82.3% [middle of 4 runs]
viability, T/C (compound 0.1 µM): 80.7% [middle of 4 runs]
viability, T/C (compound 0.316 µM): 75.6% [middle of 4 runs]
viability, T/C (compound 1 µM): 67% [middle of 4 runs]
IC50 (curve of compound): > 1000 nM
